In US11547681B2, “N-acylethanolamide derivatives and uses thereof” (ELIEM THERAPEUTICS, INC., priority 2016, dated 2023):

Legend:
[1] = in vitro; settings: male, CD-1, mouse; for Concentration (μM) of analyte PEA, 0 min / Concentration (μM) of analyte PEA, 10 min / Concentration (μM) of analyte PEA, 20 min / Concentration (μM) of analyte PEA, 30 min / Concentration (μM) of analyte PEA, 60 min / % Remaining of Initial (n = 1), 0 min / % Remaining of Initial (n = 1), 10 min / % Remaining of Initial (n = 1), 20 min / % Remaining of Initial (n = 1), 30 min / % Remaining of Initial (n = 1), 60 min / Measured concentration of PEA (analyte) / % Remaining of Initial / Concentration, analyte PEA / % Remaining of Initial (n = 1): 1 μM
Experimental: (§1) Reaction mixture, minus cofactors, was prepared as described below. Test article was added into the reaction mixture at a final concentration of 1 μM. […] An aliquot of the reaction mixture (without cofactor cocktail) was equilibrated in a shaking water bath at 37° C. for 3 minutes. The reaction was initiated by the addition of cofactor cocktail, and the mixture was incubated in a shaking water bath at 37° C. Aliquots (100 μL) were withdrawn at 0, 10, 20, 30, and 60 minutes. Test article samples were immediately combined with 300 μL of ice-cold acetonitrile containing 1% formic acid. Control samples were immediately combined with 400 μL of ice-cold 50/50 acetonitrile (ACN)/dH2O containing 0.1% formic acid and internal standard to terminate the reaction. Samples were then mixed and centrifuged to precipitate proteins. Calibration standards were prepared in matched matrix. Samples and standards were assayed by LC-MS/MS using electrospray ionization for both the dosed prodrug and the expected drug (PEA). Analytical conditions are outlined in Appendix 8-1. Test article concentration at each time point was compared to test article concentration at time 0 to determine the percent remaining at each time point. Halflives were calculated using GraphPad software, fitting to a single-phase exponential decay equation.
as §1, with “for 5” for “for 3”, “minutes. Reaction” for “minutes. The reaction”, “and” for “and the”, “both” for “both the”, “Appendix 10-1.” for “Appendix 8-1.”
Reaction mixture, minus cofactors, was prepared as described below. Test article was added into the reaction mixture at a final concentration of 1 μM. […] An aliquot of the reaction mixture (without cofactor cocktail) was equilibrated in a shaking water bath at 37° C. for 3 minutes. Reaction was initiated by the addition of cofactor cocktail, and the mixture was incubated in a shaking water bath at 37° C. Aliquots (100 μL) were withdrawn at 0, 10, 20, 30, and 60 minutes. Test article samples were immediately combined with 300 μL of ice-cold acetonitrile containing 1% formic acid. Control samples were immediately combined with 400 μL of ice-cold 50/50 acetonitrile (ACN)/dH2O containing 0.1% formic acid and internal standard to terminate the reaction. Samples were then mixed and centrifuged to precipitate proteins. Calibration standards were prepared in matched matrix. Samples and standards were assayed by LC-MS/MS using electrospray ionization for both dosed prodrug and expected drug (PEA). Analytical conditions are outlined in Appendix 13-1. Test article concentration at each time point was compared to test article concentration at time 0 to determine the percent remaining at each time point. Halflives were calculated using GraphPad software, fitting to a single-phase exponential decay equation.

[2] = Plasma stability (37° C., pH 7.4), human; assay type: in vitro ADME; settings: for half-life at 1 μM: both sexes, human, plasma, read-out: Half-life; for % Remaining of Initial (n = 1), 0 min / % Remaining of Initial (n = 1), 15 min / % Remaining of Initial (n = 1), 30 min / % Remaining of Initial (n = 1), 60 min / % Remaining of Initial (n = 1), 120 min / % Remaining of Initial: human plasma; for % Remaining of Initial (n = 1), 0 min: pH 7.4, 0 min; for % Remaining of Initial (n = 1), 15 min: pH 7.4, 15 min; for % Remaining of Initial (n = 1), 30 min: pH 7.4, 30 min; for % Remaining of Initial (n = 1), 60 min: pH 7.4, 60 min; for % Remaining of Initial (n = 1), 120 min: pH 7.4, 120 min; for % Remaining of Initial: n = 1; for % Remaining of Initial (n = 1): Human plasma
Experimental: (§2) Studies were carried out in mixed-gender human plasma (Lot #GLP530-5), male Sprague-Dawley rat (Lot #RAT297944, RAT313140), male CD-1 mouse (Lot #MSE237700), and male Beagle dog (Lot #BGL87670, BGL82614), collected on sodium heparin. Plasma was adjusted to pH 7.4 prior to initiating the experiments. DMSO stocks were first prepared for the test articles. Aliquots of the DMSO solutions were dosed into 700 μL of plasma, which had been pre-warmed to 37° C., at a final test article concentration of 1 μM. […] Samples were stored at 4° C. until the end of the experiment. After the final time point was sampled, the plate was mixed and then centrifuged at 3,000 rpm for 10 minutes. Calibration standards were prepared in matched matrix. […] Analytical conditions are outlined in Appendix 8-1.
as §2, with “#AS1650-2),” for “#GLP530-5),”, “#RAT297944),” for “#RAT297944, RAT313140),”, “CD-I” for “CD-1”, “#BGL91384),” for “#BGL87670, BGL82614),”, “10-1.” for “8-1.”
Studies were carried out in mixed-gender human plasma (Lot #AS1650-2), male Sprague-Dawley rat (Lot #RAT297944), male CD-1 mouse (Lot #MSE237700), and male Beagle dog (Lot #BGL91384), collected on sodium heparin. Plasma was adjusted to pH 7.4 prior to initiating the experiments. DMSO stocks were first prepared for test articles. […] Samples were stored at 4° C. until the end of experiment. After the final time point was sampled, the plate was mixed and then centrifuged at 3,000 rpm for 10 minutes. Calibration standards were prepared in matched matrix. […] Analytical conditions are outlined in Appendix 13-1.
Studies were carried out in mixed-gender human plasma (Lot #AS 1650-2), male Sprague-Dawley rat (Lot #RAT320835), male CD-1 mouse (Lot #MSE260693), and 6 male Beagle dog (Lot #BGL91384), on sodium heparin. Plasma was adjusted to pH 7.4 prior to initiating the experiments. DMSO stocks were first prepared for the test articles. Aliquots of the DMSO solutions were dosed into 700 μL of plasma, which had been pre-warmed to 37° C., at a final test article concentration of 1 μM. […] Samples were stored at 4° C. until the end of the experiment. After the final time point was sampled, the plate was mixed and then centrifuged at 3,000 rpm for 10 minutes. Calibration standards were prepared in matched matrix. […] Analytical conditions are outlined in Appendix 17-1.

[3] = pH 7.4, human plasma, test article 1 μM, 37° C., pH 7.4

Compound	Concentration (μM) of analyte PEA, 0 min ([1]; 0 min)	Concentration (μM) of analyte PEA, 10 min ([1]; 10 min)	Concentration (μM) of analyte PEA, 20 min ([1]; 20 min)	Concentration (μM) of analyte PEA, 30 min ([1]; 30 min)	Concentration (μM) of analyte PEA, 60 min ([1]; 60 min)	% Remaining of Initial (n = 1), 0 min ([1]; s9, 0 h)	% Remaining of Initial (n = 1), 10 min ([1]; s9, 10 min)	% Remaining of Initial (n = 1), 20 min ([1]; s9, 20 min)	% Remaining of Initial (n = 1), 30 min ([1]; s9, 0.5 h)	% Remaining of Initial (n = 1), 60 min ([1]; s9, 1 h)	half-life at 1 μM [2, 3]	% Remaining of Initial (n = 1), 0 min ([2]; test article 1 μM, 37° C.)	% Remaining of Initial (n = 1), 15 min ([2]; test article 1 μM, 37° C.)	% Remaining of Initial (n = 1), 30 min ([2]; test article 1 μM, 37° C.)	% Remaining of Initial (n = 1), 60 min ([2]; test article 1 μM, 37° C.)	% Remaining of Initial (n = 1), 120 min ([2]; test article 1 μM, 37° C.)	microsomal CLint at 1 μM ([1]; s9, CLint)	half-life at 1 μM ([1]; s9, Half-life)	microsomal CLint at 1 μM ([1]; s9, CLint (mL/min/mg protein))	half-life at 1 μM ([1]; s9, Half-life (min))	also measured
CCCCCCCCCCCCCCCC(=O)NCCOC(=O)CCC(=O)OC[C@H]1O[C@@](CO)(O[C@H]2O[C@H](CO)[C@@H](O)[C@H](O)[C@H]2O)[C@@H](O)[C@@H]1O [Compound I-7]	0.033 µM	0.24 µM	0.29 µM	0.39 µM	0.38 µM	100%	59%	35%	27%	5.7%	< 1 min	100%	<1.0%	<1.0%	<1.0%	<1.0%					
CCCCCCCCCCCCCCCC(=O)NCCOC(=O)CCC(=O)OC(CO)CO [Compound I-8]																	38.9 µL/min/mg	18 min			Measured concentration of PEA (analyte) ([1]; 0 min): 0.012 µM; Measured concentration of PEA (analyte) ([1]; 10 min): 0.12 µM; Measured concentration of PEA (analyte) ([1]; 20 min): 0.19 µM; Measured concentration of PEA (analyte) ([1]; 30 min): 0.22 µM; Measured concentration of PEA (analyte) ([1]; 60 min): 0.26 µM; % Remaining of Initial ([1]; s9, 0 h): 100%; % Remaining of Initial ([1]; s9, 10 min): 65%; % Remaining of Initial ([1]; s9, 20 min): 45%; % Remaining of Initial ([1]; s9, 0.5 h): 31%; % Remaining of Initial ([1]; s9, 1 h): 12%; half-life at 1 μM ([2]; pH 7.4, human plasma): < 1 min; % Remaining of Initial ([2]; 0 min, 1 μM): 100%; % Remaining of Initial ([2]; 15 min, 1 μM): <1.0%; % Remaining of Initial ([2]; 30 min, 1 μM): <1.0%; % Remaining of Initial ([2]; 60 min, 1 μM): <1.0%; % Remaining of Initial ([2]; 120 min, 1 μM): <1.0%
CCCCCCCCCCCCCCCC(=O)NCCOC(=O)CCC(=O)OCC(O)CO (stereo not drawn) [Compound I-9]	0.0024 µM	0.12 µM	0.15 µM	0.19 µM	0.23 µM	100%	56%	33%	21%	6.5%	3.8 min	100%	6.4%	1.4%	<1.0%	<1.0%			53.7 µL/min/mg	13 min	
CCCCCCCCCCCCCCCC(=O)NCCOC(=O)CCC(=O)OCC(COC(=O)CCC)OC(=O)CCC (stereo not drawn) [Compound I-11]	0 µM	0.021 µM	0.059 µM	0.12 µM	0.084 µM	100%	<1.0%	<1.0%	<1.0%	<1.0%	34 min	100%	67%	47%	34%	10%			> 691 µL/min/mg	< 1 min	
CCCCC/C=C\C/C=C\CCCCCCCC(=O)OCC(COC(=O)CCC(=O)OCCNC(=O)CCCCCCCCCCCCCCC)OC(=O)CCCCCCC/C=C\C/C=C\CCCCC (stereo not drawn) [Compound I-13]																	< 11.6 µL/min/mg	> 60 min			Concentration, analyte PEA ([1]; 0 min): 12 nM; Concentration, analyte PEA ([1]; 10 min): 50 nM; Concentration, analyte PEA ([1]; 20 min): 73 nM; Concentration, analyte PEA ([1]; 30 min): 96 nM; Concentration, analyte PEA ([1]; 60 min): 89 nM; % Remaining of Initial (n = 1) ([1]; s9, 0 h): 100%; % Remaining of Initial (n = 1) ([1]; s9, 10 min): 97%; % Remaining of Initial (n = 1) ([1]; s9, 20 min): 71%; % Remaining of Initial (n = 1) ([1]; s9, 0.5 h): 81%; % Remaining of Initial (n = 1) ([1]; s9, 1 h): 57%; microsomal CLint at 1 μM ([1]; s9, CLint, calculated (in parentheses)): 9.51 µL/min/mg; half-life at 1 μM ([1]; s9, Half-life, calculated (in parentheses)): 73 min; % Remaining of Initial (n = 1) ([2]; 0 min, 1 μM): 100%; % Remaining of Initial (n = 1) ([2]; 15 min, 1 μM): 104%; % Remaining of Initial (n = 1) ([2]; 30 min, 1 μM): 115%; % Remaining of Initial (n = 1) ([2]; 60 min, 1 μM): 95%; % Remaining of Initial (n = 1) ([2]; 120 min, 1 μM): 40%; half-life at 1 μM ([2]; pH 7.4, Human plasma, 1 μM): 120 min
